US20250057844A1, “METHODS OF TREATING NEOPLASTIC DISEASES” (SILLAJEN, INC., priority 2021, published 2025)

What was measured:
[1] = First PK study: single oral dose, two formulations; type: in vivo, female Swiss Albino mice; conditions: for Tmax / bioavailability / AUC(0-inf) / AUC(0-t) / Cmax / half-life: Swiss Albino, mouse, plasma; for bioavailability: based on i.v. exposure; for AUC(0-t): AUC0-24 h; for Cmax: mean (SD); for half-life: read-out: Apparent T1/2 (converted)
Protocol: (§1) Plasma samples were collected on day 1 for Groups 1 to 6. Formulation 1 consisted of DMSO, cremophor EL, and 5% mannitol in water (10/10/80; v/v/v). Formulation 2 consisted of ethanol, PEG 400, and citric acid 20 mM (10/10/80; v/v/v). […] In each of the three studies blood was collected via the sephanous vein into K2-EDTA tubes kept on ice until centrifugation at 4° C. Plasma was stored at ap-proximately-80° C. […] PK parameters were calculated using Phoenix® WinNonLin 6.4. PK analysis was based on sparse sampling.

[2] = Second PK study: daily oral dose for 5 days, two formulations; type: in vivo, female Swiss Albino mice; conditions: for AUC(0-t): AUC0-24 h
Protocol: as §1, with “In a second study female Swiss Albino mice were administered daily oral dose of 5, 7.5, or 10 mg/kg of the compound of formula (I) for 5 days. […] PK samples” for “Plasma samples”, “day 5” for “day 1”, “for groups” for “for Groups”

[3] = test system: tumor patient-derived xenografts (PDX), including TNBC and hepatocellular cancer (HCC) models; test: Patient-derived xenografts (PDX) in mice; type: in vivo; conditions: data not shown
[4] = female, po, 5 mg/kg, single oral 5 mg/kg, Formulation 1, female mice
[5] = female, po, 5 mg/kg, single oral 5 mg/kg, Formulation 2, female mice
[6] = female, po, 7.5 mg/kg, single oral 7.5 mg/kg, Formulation 1, female mice
[7] = female, po, 7.5 mg/kg, single oral 7.5 mg/kg, Formulation 2, female mice
[8] = female, po, 10 mg/kg, single oral 10 mg/kg, Formulation 1, female mice
[9] = female, po, 10 mg/kg, single oral 10 mg/kg, Formulation 2, female mice
[10] = single oral 5 mg/kg, Formulation 1, female mice
[11] = single oral 5 mg/kg, Formulation 2, female mice
[12] = single oral 7.5 mg/kg, Formulation 1, female mice
[13] = single oral 7.5 mg/kg, Formulation 2, female mice
[14] = single oral 10 mg/kg, Formulation 1, female mice
[15] = single oral 10 mg/kg, Formulation 2, female mice
[16] = day 5, daily oral 5 mg/kg, Formulation 1, female mice
[17] = day 5, daily oral 5 mg/kg, Formulation 2, female mice
[18] = day 5, daily oral 7.5 mg/kg, Formulation 1, female mice
[19] = day 5, daily oral 7.5 mg/kg, Formulation 2, female mice
[20] = day 5, daily oral 10 mg/kg, Formulation 1, female mice
[21] = day 5, daily oral 10 mg/kg, Formulation 2, female mice
[22] = female, Swiss Albino, mouse, plasma, po, 5 mg/kg, day 5, daily oral 5 mg/kg, Formulation 1, female mice
[23] = female, Swiss Albino, mouse, plasma, po, 5 mg/kg, day 5, daily oral 5 mg/kg, Formulation 2, female mice
[24] = female, Swiss Albino, mouse, plasma, po, 7.5 mg/kg, day 5, daily oral 7.5 mg/kg, Formulation 1, female mice
[25] = female, Swiss Albino, mouse, plasma, po, 7.5 mg/kg, day 5, daily oral 7.5 mg/kg, Formulation 2, female mice
[26] = female, Swiss Albino, mouse, plasma, po, 10 mg/kg, day 5, daily oral 10 mg/kg, Formulation 1, female mice
[27] = female, Swiss Albino, mouse, plasma, po, 10 mg/kg, day 5, daily oral 10 mg/kg, Formulation 2, female mice

COc1cc(N2CCNCC2)ccc1Nc1ncc2c(n1)-n1ccc(C(=O)Nc3c(C)cccc3C)c1CC2 [compound of formula (I)]
Tmax ([1]; single oral 5 mg/kg, Formulation 1, female mice, read-out: Tmax): 4 h | Tmax ([1]; single oral 7.5 mg/kg, Formulation 1, female mice, read-out: Tmax): 4 h | Tmax ([1]; single oral 10 mg/kg, Formulation 1, female mice, read-out: Tmax): 4 h | bioavailability ([1]; female, oral, single dose administration, read-out: oral bioavailability): 76 to 96% | AUC(0-inf) [1, 4]: 1100 ng·h/mL | AUC(0-t) [1, 4]: 1080 ng·h/mL | bioavailability ([1]; female, po, 5 mg/kg, single oral 5 mg/kg, Formulation 1, female mice, read-out: F (%)): 76% | Cmax [1, 4]: 108 ng/mL | half-life [1, 4]: 3.27 h | AUC(0-inf) [1, 5]: 1130 ng·h/mL | AUC(0-t) [1, 5]: 1120 ng·h/mL | bioavailability ([1]; female, po, 5 mg/kg, single oral 5 mg/kg, Formulation 2, female mice, read-out: F (%)): 78% | Cmax [1, 5]: 103 ng/mL | half-life [1, 5]: 3.29 h | AUC(0-inf) [1, 6]: 1660 ng·h/mL | AUC(0-t) [1, 6]: 1650 ng·h/mL | bioavailability ([1]; female, po, 7.5 mg/kg, single oral 7.5 mg/kg, Formulation 1, female mice, read-out: F (%)): 77% | Cmax [1, 6]: 164 ng/mL | half-life [1, 6]: 3.23 h | AUC(0-inf) [1, 7]: 1910 ng·h/mL | AUC(0-t) [1, 7]: 1880 ng·h/mL | bioavailability ([1]; female, po, 7.5 mg/kg, single oral 7.5 mg/kg, Formulation 2, female mice, read-out: F (%)): 88% | Cmax [1, 7]: 172 ng/mL | half-life [1, 7]: 3.51 h | AUC(0-inf) [1, 8]: 2480 ng·h/mL | AUC(0-t) [1, 8]: 2430 ng·h/mL | bioavailability ([1]; female, po, 10 mg/kg, single oral 10 mg/kg, Formulation 1, female mice, read-out: F (%)): 86% | Cmax [1, 8]: 210 ng/mL | half-life [1, 8]: 3.66 h | AUC(0-inf) [1, 9]: 2770 ng·h/mL | AUC(0-t) [1, 9]: 2730 ng·h/mL | bioavailability ([1]; female, po, 10 mg/kg, single oral 10 mg/kg, Formulation 2, female mice, read-out: F (%)): 96% | Cmax [1, 9]: 276 ng/mL | half-life [1, 9]: 3.43 h | Tmax ([1]; female, single oral administration, 5-10 mg/kg, both formulations, read-out: median Tmax): 4 h | % extrapolated [1, 10]: 1.11% | AUCinf/Dose [1, 10]: 220 ng·h/mL/mg/kg | AUClast/Dose [1, 10]: 216 (h*ng/mL)/(mg/kg) | Cmax/Dose [1, 10]: 21.6 (ng/mL)/(mg/kg) | % extrapolated [1, 11]: 1.14% | AUCinf/Dose [1, 11]: 226 ng·h/mL/mg/kg | AUClast/Dose [1, 11]: 224 (h*ng/mL)/(mg/kg) | Cmax/Dose [1, 11]: 20.6 (ng/mL)/(mg/kg) | % extrapolated [1, 12]: 1.06% | AUCinf/Dose [1, 12]: 221 ng·h/mL/mg/kg | AUClast/Dose [1, 12]: 220 (h*ng/mL)/(mg/kg) | Cmax/Dose [1, 12]: 21.9 (ng/mL)/(mg/kg) | % extrapolated [1, 13]: 1.67% | AUCinf/Dose [1, 13]: 255 ng·h/mL/mg/kg | AUClast/Dose [1, 13]: 251 (h*ng/mL)/(mg/kg) | Cmax/Dose [1, 13]: 22.9 (ng/mL)/(mg/kg) | % extrapolated [1, 14]: 1.9% | AUCinf/Dose [1, 14]: 248 ng·h/mL/mg/kg | AUClast/Dose [1, 14]: 243 (h*ng/mL)/(mg/kg) | Cmax/Dose [1, 14]: 21 (ng/mL)/(mg/kg) | % extrapolated [1, 15]: 1.47% | AUCinf/Dose [1, 15]: 277 ng·h/mL/mg/kg | AUClast/Dose [1, 15]: 273 (h*ng/mL)/(mg/kg) | Cmax/Dose [1, 15]: 27.6 (ng/mL)/(mg/kg) | Tmax ([2]; Swiss Albino, mouse, plasma, day 5, daily oral 5 mg/kg, Formulation 1, female mice, read-out: Tmax): 2 h | Tmax ([2]; Swiss Albino, mouse, plasma, day 5, daily oral 7.5 mg/kg, Formulation 1, female mice, read-out: Tmax): 4 h | Tmax ([2]; Swiss Albino, mouse, plasma, day 5, daily oral 10 mg/kg, Formulation 1, female mice, read-out: Tmax): 4 h | % extrapolated [2, 16]: 8.33% | AUCinf/Dose [2, 16]: 81.6 ng·h/mL/mg/kg | AUClast/Dose [2, 16]: 74.8 (h*ng/mL)/(mg/kg) | Cmax/Dose [2, 16]: 5.16 (ng/mL)/(mg/kg) | % extrapolated [2, 17]: 1.53% | AUCinf/Dose [2, 17]: 116 ng·h/mL/mg/kg | AUClast/Dose [2, 17]: 114 (h*ng/mL)/(mg/kg) | Cmax/Dose [2, 17]: 9.48 (ng/mL)/(mg/kg) | % extrapolated [2, 18]: 5.04% | AUCinf/Dose [2, 18]: 50 ng·h/mL/mg/kg | AUClast/Dose [2, 18]: 47.5 (h*ng/mL)/(mg/kg) | Cmax/Dose [2, 18]: 6.03 (ng/mL)/(mg/kg) | % extrapolated [2, 19]: 1.77% | AUCinf/Dose [2, 19]: 82.4 ng·h/mL/mg/kg | AUClast/Dose [2, 19]: 80.9 (h*ng/mL)/(mg/kg) | Cmax/Dose [2, 19]: 8.36 (ng/mL)/(mg/kg) | % extrapolated [2, 20]: 7.41% | AUCinf/Dose [2, 20]: 60.8 ng·h/mL/mg/kg | AUClast/Dose [2, 20]: 56.3 (h*ng/mL)/(mg/kg) | Cmax/Dose [2, 20]: 4.01 (ng/mL)/(mg/kg) | % extrapolated [2, 21]: 12.7% | AUCinf/Dose [2, 21]: 87 ng·h/mL/mg/kg | AUClast/Dose [2, 21]: 76 (h*ng/mL)/(mg/kg) | Cmax/Dose [2, 21]: 5.65 (ng/mL)/(mg/kg) | bioavailability ([2]; female, Swiss Albino, mouse, plasma, oral, multiple daily dose administration, based on i.v. exposure, read-out: oral bioavailability): 18 to 41% | AUC(0-inf) [2, 22]: 408 ng·h/mL | Cmax [2, 22]: 25.8 ng/mL | AUC(0-t) [2, 22]: 374 ng·h/mL | bioavailability ([2]; female, Swiss Albino, mouse, plasma, po, 5 mg/kg, day 5, daily oral 5 mg/kg, Formulation 1, female mice, based on iv exposure, read-out: F (%)): 29% | half-life at 5 days ([2]; female, Swiss Albino, mouse, plasma, po, 5 mg/kg, day 5, daily oral 5 mg/kg, Formulation 1, female mice, read-out: Apparent T1/2 (converted)): 7.8 h | AUC(0-inf) [2, 23]: 579 ng·h/mL | Cmax [2, 23]: 47.4 ng/mL | AUC(0-t) [2, 23]: 570 ng·h/mL | bioavailability ([2]; female, Swiss Albino, mouse, plasma, po, 5 mg/kg, day 5, daily oral 5 mg/kg, Formulation 2, female mice, based on iv exposure, read-out: F (%)): 41% | half-life ([2]; female, Swiss Albino, mouse, plasma, po, 5 mg/kg, day 5, daily oral 5 mg/kg, Formulation 2, female mice, read-out: Apparent T1/2 (converted)): 4.02 h | AUC(0-inf) [2, 24]: 375 ng·h/mL | Cmax [2, 24]: 45.2 ng/mL | AUC(0-t) [2, 24]: 356 ng·h/mL | bioavailability ([2]; female, Swiss Albino, mouse, plasma, po, 7.5 mg/kg, day 5, daily oral 7.5 mg/kg, Formulation 1, female mice, based on iv exposure, read-out: F (%)): 18% | half-life ([2]; female, Swiss Albino, mouse, plasma, po, 7.5 mg/kg, day 5, daily oral 7.5 mg/kg, Formulation 1, female mice, read-out: Apparent T1/2 (converted)): 5.31 h | AUC(0-inf) [2, 25]: 618 ng·h/mL | Cmax [2, 25]: 62.7 ng/mL | AUC(0-t) [2, 25]: 607 ng·h/mL | bioavailability ([2]; female, Swiss Albino, mouse, plasma, po, 7.5 mg/kg, day 5, daily oral 7.5 mg/kg, Formulation 2, female mice, based on iv exposure, read-out: F (%)): 29% | half-life ([2]; female, Swiss Albino, mouse, plasma, po, 7.5 mg/kg, day 5, daily oral 7.5 mg/kg, Formulation 2, female mice, read-out: Apparent T1/2 (converted)): 3.79 h | AUC(0-inf) [2, 26]: 608 ng·h/mL | Cmax [2, 26]: 40.1 ng/mL | AUC(0-t) [2, 26]: 563 ng·h/mL | bioavailability ([2]; female, Swiss Albino, mouse, plasma, po, 10 mg/kg, day 5, daily oral 10 mg/kg, Formulation 1, female mice, based on iv exposure, read-out: F (%)): 22% | half-life ([2]; female, Swiss Albino, mouse, plasma, po, 10 mg/kg, day 5, daily oral 10 mg/kg, Formulation 1, female mice, read-out: Apparent T1/2 (converted)): 5.81 h | AUC(0-inf) [2, 27]: 870 ng·h/mL | Cmax [2, 27]: 56.5 ng/mL | AUC(0-t) [2, 27]: 760 ng·h/mL | bioavailability ([2]; female, Swiss Albino, mouse, plasma, po, 10 mg/kg, day 5, daily oral 10 mg/kg, Formulation 2, female mice, based on iv exposure, read-out: F (%)): 31% | half-life ([2]; female, Swiss Albino, mouse, plasma, po, 10 mg/kg, day 5, daily oral 10 mg/kg, Formulation 2, female mice, read-out: Apparent T1/2 (converted)): 7.66 h | Tmax ([2]; female, Swiss Albino, mouse, plasma, day 5 of daily oral administration, read-out: median Tmax): 2 to 4 h | activity against PDX [3]: significant activity
